{
  "source": "patent US20030158237A1",
  "about": "“Combination of antioxidant substances for the treatment of alzheimer's disease” (priority 2001, published 2003)",
  "origin": "cited, not measured here",
  "key": {"[1]": {"test_system": "341 patients", "details": "single-agent therapy, 2 years; vitamin E 2,000 UI/daily, selegiline 10 mg daily"}, "[2]": {"test_system": "NF-kappa B binding induced by ceramide", "details": "in comparison with N-acetylcystein, acetate d-alpha-tocopherol, ascorbic acid"}, "[3]": {"test_system": "isolated LDL", "details": "0.025-0.3 mg/l added to isolated LDL; dose dependent"}, "[4]": {"test_system": "hippocampal cell cultures"}, "[5]": {"test_system": "DNA fragmentation induced by low-dose t-BuOOH", "details": "mouse"}},
  "data": [
    {"molecule": "C#CCN(C)[C@H](C)Cc1ccccc1", "note": "[selegiline]", "values": [
      {"measurement": "retarded cognitive deterioration", "setting": "[1]", "value": 25, "unit": "%"}
    ]},
    {"molecule": "O=C(O)C=Cc1ccc(O)c(O)c1", "note": "[caffeic acid, 3-(3,4-Dihydroxyphenyl)-2-propenoic acid]", "values": [
      {"measurement": "activity of the NF-kappa B binding induced by ceramide", "setting": "[2]", "value": "inhibits significantly"},
      {"measurement": "apoptotic response induced by ceramide", "setting": "[2]", "value": "inhibits significantly"},
      {"measurement": "time of oxidation of LDL", "setting": "[3]", "value": "prolonged"}
    ]},
    {"molecule": "vitamin E", "values": [
      {"measurement": "adverse effects with high doses", "setting": "3000 IU", "value": "indigestion, gastric distress, diarrhea and severe cramps"},
      {"measurement": "adverse symptoms (uncommon)", "setting": "in vivo", "value": "cataract, haemorrhage risk in patient with vitamin K deficiency, and syncope"},
      {"measurement": "retarded cognitive deterioration", "setting": "[1]", "value": 25, "unit": "%"},
      {"measurement": "beta A4 induced cell death", "setting": "[4]", "value": "reduces beta A4 induced cell death"}
    ]},
    {"molecule": "NC(=O)c1cccnc1", "note": "[nicotinamide]", "values": [
      {"measurement": "DNA fragmentation", "setting": "[5]", "value": "able to prevent DNA fragmentation"}
    ]}
  ]
}
